Results taken from US20100022514A1, “Heterocycle Compounds and Methods of Use Thereof” (NORVARTIS AG, priority 2006, published 2010).

What was measured:
[1] = system: p21 promoter (p21-luc) in H1299 cells; experiment: p21 promoter luciferase assay using stably transfected p21-luc in H1299 cells; format: cell-based; settings: Homo sapiens, NCI-H1299
Description: The cell lines used are derived from H1299 (p21-luc). The growth media used is RPMI 1640, 10% FBS, 1% Pen/Strep and the selection media added is 500 μg/mL Geneticin (Gibco). The buffer used is 5× cell culture lysis buffer (Promega #E1531), stored at −20 C and the Luciferase assay reagent (Promega #E1483) is stored at −70° C. The results of the assay are analyzed using Wallac Software.
To assay Luciferase, the cell culture medium is removed after one day of growth and the flasks are washed once with PBS. The cells are trypsinized in 20 mL of media and the trypsin is neutralized. The cells are counted (0.5-1 mL) on a Vi-Cell XR cell viability analyzer.
Cells are then diluted to a concentration of approximately 5000 cells/200 μL, and 190 μL samples are aliquoted into each well of a Costar white 96-well TC treated white bottom plate with lid (Costar #3917). Plates are then incubated overnight at 37 C.
After a further day, a sample of the compound is added to the wells for assay.
After a further day, the cells are lysed and the luciferase activity of the lysed cells is measured. Each well is washed twice with PBS and 20 μL/well of 1× cell culture lysis buffer (dilute 5× to 1× in distilled water) is added to each well. The microtiter plates are then shaken on a microtiter plate shaker for 20 minutes at room temperate at a speed setting of 5-6. After removal from the shaker, 100 μL of Luciferase Reagent is added to each well. Each microtiter plate is then read on Wallac Envision instrument.

HDAC-1 = biological target: T1, HDAC-1 (Homo sapiens, UniProt Q13547); experiment: Deacetylase fluorescence assay (HDAC-1); format: biochemical; settings: read-out: HDAC-1 IC50
T1 construct: made in house
T1 sequence (Q13547 whole entry): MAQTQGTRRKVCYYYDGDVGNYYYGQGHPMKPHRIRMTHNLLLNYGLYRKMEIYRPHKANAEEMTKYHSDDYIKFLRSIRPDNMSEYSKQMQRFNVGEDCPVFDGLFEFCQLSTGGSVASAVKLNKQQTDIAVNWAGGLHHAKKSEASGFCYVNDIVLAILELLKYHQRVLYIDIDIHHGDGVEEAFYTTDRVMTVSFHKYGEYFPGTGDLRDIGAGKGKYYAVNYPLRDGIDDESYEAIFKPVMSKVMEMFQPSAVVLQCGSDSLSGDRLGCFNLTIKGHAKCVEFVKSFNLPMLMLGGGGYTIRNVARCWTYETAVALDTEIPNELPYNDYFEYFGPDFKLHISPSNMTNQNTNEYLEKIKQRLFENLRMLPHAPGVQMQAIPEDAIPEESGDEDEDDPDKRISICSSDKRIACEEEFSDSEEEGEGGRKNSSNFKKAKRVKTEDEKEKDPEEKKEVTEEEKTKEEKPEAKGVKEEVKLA
Description: Conventional methods are used to express deacetylase enzymes and purify them from lysed cells. The following example describes an exemplary procedure, however equivalent procedures are within the scope of the invention.
The cell line used is a derivative of 293 cells overexpressing a fusion of the gene encoding each deacetylase protein with a nucleotide sequence encoding the Flag marker.
Cells are grown in Optimem, 2% Fetal Calf Serum, Pen/Strep. For enzyme preparation, Lysis buffer (IPLS) is 50 mM Tris-HCl, pH 7.5, 120 mM NaCl, 0.5 mM EDTA and 0.5% Nonidet P-40, to which is added one tablet of Protease inhibitors (Roche 11836170001) per 10 ml buffer. Other buffers are IPHS, which is IPLS containing 1 M NaCl; TBS (Sigma #T5912) dilute 10× stock to 1× with dH2O; HD buffer: 10 mM Tris pH 8.0 (1M Stock) 10 mM NaCl (5M Stock), 10% glycerol, and for dialysis: 400 μM PMSF is added (for 2 L: use 8 ml 100 mM Stock). Protease inhibitors (Complete mini, Boehringer Mannheim), 1 tablet/10 mL are added to all buffers but not used in buffers for enzyme assays.
Cells are harvested without using trypsin, and most cells are obtained easily in PBS, with gentle striking or agitation of flasks if necessary. More adherent cells are scraped in PBS. Cells are grown in 500 cm^2 trays, from which about half of the media is aspirated (50 ml total), then cells are scraped in the rest of the media and transferred to a centrifuge tube. Trays are washed with 25 ml cold PBS, scraped again to collect additional cells, and centrifuged at 1500 rpm at 4° C. for 5 min. Cells are washed at least 3 times in PBS to remove growth media, pelleting cells after each wash by centrifugation at 1500 rpm for 5 minutes. After washing, PBS is removed and the resulting cell pellet frozen at −80° C. for storage prior to purification.
For purification, cells are resuspended in lysis buffer, 12 ml of IPLS for cells collected from 10 500 cm trays. Cells are lysed at 4° C. for 3 hrs with rocking, and debris is removed by centrifugation for 20 min at 17,000 rpm in 30 ml centrifuge tubes. If supernatant is not clear afterward, centrifugation of the supernatant is repeated. Protein concentration of the whole cell lysate is determined (generally in the range of about 2-5 mg/ml).
For immunoprecipitation per mg of protein, 15 μL of anti-Flag M2-Agarose Affinity beads (Sigma #A2220) is used. Beads are prepared by washing 3 times with 10× bead volume of PBS and 1 time with IPLS, with centrifugation of the washes at 1500 rpm for 5 min. Whole cell lysate is incubated with the Ab-beads overnight at 4° C. Then beads are centrifuged and washed in 5× volume of the following buffers: three times in IPLS (30 sec at 4° C., spin at 1500 RPM for 5 min); three times in IPHS; and three times in TBS buffer. After each centrifugation, the supernatant is aspirated, leaving the pellet as dry as possible but avoiding sucking up any of the beads.
To elute the enzyme, beads are resuspended in 5× bead volume of TBS with protease inhibitor (Roche 11836170001) 1 tablet/10 mL. Enzyme is eluted with 400 μg/mL Flag peptide (Sigma #F-3290) for 3 hrs at 4° C. on rotator. Then beads are centrifuged, and the supernatant is transferred to a new tube to which is added 1/10 volume of glycerol. The supernatant is transferred to a dialysis cassette (Pierce #66410) using a 3 cc syringe and 18 G needle, and is dialyze sup in 2 L HD buffer for 2 hrs at 4° C. (1 L/hour). The resulting purified deacetylase is divided into aliquots (300 μL/tube), is snap frozen in dry ice bath, and is stored at −80° C.
For assay of deacetylase an assay based on Deacetylase Fluorescent Activity Assay/Drug Discovery Kit (BioMol # AK500) is used, however any equivalent deacetylase assay is within the scope of the invention.
The Fluorescent Assay Buffer (FAB) contains: 25 mM Tris-HCl, pH 8.0, 137 mM NaCl, 2.7 mM KCl and 1 mM MgCl2. […]

Compound | IC50 (HDAC-1) [nM] | AC50 [1] [nM]
O=C(/C=C/c1ccc2c(c1)CN(Cc1ccccc1)C2)NO [Example 1, (E)-3-(2-Benzyl-2,3-dihydro-1H-isoindol-5-yl)-N-hydroxy-acrylamide] | 100 to 1000 | > 1000
CC(C)(C)OC(=O)N1Cc2ccc(/C=C/C(=O)NO)cc2C1 [Example 2, 5-((E)-2-Hydroxycarbamoyl-vinyl)-1,3-dihydro-isoindole-2-carboxylic acid tert-butyl ester] | 100 to 1000 | > 1000
CC(C)(C)C(=O)N1Cc2ccc(/C=C/C(=O)NO)cc2C1 [Example 3, (E)-3-[2-(2,2-Dimethyl-propionyl)-2,3-dihydro-1H-isoindol-5-yl]-N-hydroxy-acrylamide] | 100 to 1000 | > 1000
CS(=O)(=O)N1Cc2ccc(/C=C/C(=O)NO)cc2C1 [Example 4, (E)-N-Hydroxy-3-(2-methanesulfonyl-2,3-dihydro-1H-isoindol-5-yl)-acryl amide] | 100 to 1000 | > 1000
O=C(/C=C/c1ccc2c(c1)CN(S(=O)(=O)c1ccccc1)C2)NO [Example 5, (E)-3-(2-Benzenesulfonyl-2,3-dihydro-1H-isoindol-5-yl)-N-hydroxy-acrylamide] | 100 to 1000 | > 1000
O=C(/C=C/c1ccc2c(c1)CN(S(=O)(=O)c1ccncc1)C2)NO [Example 6, (E)-N-Hydroxy-3-[2-(pyridine-4-sulfonyl)-2,3-dihydro-1H-isoindol-5-yl]-acrylamide] | 100 to 1000 | > 1000
O=C(/C=C/c1ccc2c(c1)CN(S(=O)(=O)c1cccnc1)C2)NO [Example 7, (E)-N-Hydroxy-3-[2-(pyridine-3-sulfonyl)-2,3-dihydro-1H-isoindol-5-yl]-acrylamide] | 100 to 1000 | > 1000

Second part, led by results:

IC50 (HDAC-1) [nM] | Compound | AC50 [1] [nM]
< 100 | Cc1ccc(S(=O)(=O)N2Cc3ccc(/C=C/C(=O)NO)cc3C2)cc1 [Example 8, (E)-N-Hydroxy-3-[2-(toluene-4-sulfonyl)-2,3-dihydro-1H-isoindol-5-yl]-acrylamide] | > 1000
< 100 | COc1ccc(S(=O)(=O)N2Cc3ccc(/C=C/C(=O)NO)cc3C2)cc1 [Example 9, (E)-N-Hydroxy-3-[2-(4-methoxy-benzenesulfonyl)-2,3-dihydro-1H-isoindol-5-yl]-acrylamide] | > 1000
100 to 1000 | O=C(/C=C/c1ccc2c(c1)CN(S(=O)(=O)c1ccc(C(F)(F)F)cc1)C2)NO [Example 10, (E)-N-Hydroxy-3-[2-(4-trifluoromethyl-benzenesulfonyl)-2,3-dihydro-1H-isoindol-5-yl]-acrylamide] | > 1000
< 100 | Cc1cccc(S(=O)(=O)N2Cc3ccc(/C=C/C(=O)NO)cc3C2)c1 [Example 11, (E)-N-Hydroxy-3-[2-(toluene-3-sulfonyl)-2,3-dihydro-1H-isoindol-5-yl]-acrylamide] | > 1000
100 to 1000 | O=C(/C=C/c1ccc2c(c1)CN(S(=O)(=O)c1cccc(C(F)(F)F)c1)C2)NO [Example 12, (E)-N-Hydroxy-3-[2-(3-trifluoromethyl-benzenesulfonyl)-2,3-dihydro-1H-isoindol-5-yl]-acrylamide] | > 1000
< 100 | COc1cccc(S(=O)(=O)N2Cc3ccc(/C=C/C(=O)NO)cc3C2)c1 [Example 13, (E)-N-Hydroxy-3-[2-(3-methoxy-benzenesulfonyl)-2,3-dihydro-1H-isoindol-5-yl]-acrylamide] | > 1000
100 to 1000 | Cc1ccccc1S(=O)(=O)N1Cc2ccc(/C=C/C(=O)NO)cc2C1 [Example 14, (E)-N-Hydroxy-3-[2-(toluene-2-sulfonyl)-2,3-dihydro-1H-isoindol-5-yl]-acrylamide] | > 1000
100 to 1000 | Cn1cnc(S(=O)(=O)N2Cc3ccc(/C=C/C(=O)NO)cc3C2)c1 [Example 15, (E)-N-Hydroxy-3-[2-(1-methyl-1H-imidazole-4-sulfonyl)-2,3-dihydro-1H-isoindol-5-yl]-acrylamide] | > 1000
